Data reported in patent US20200138840A1, “PHARMACEUTICAL COMPOSITION AND TUMOR IMMUNOACTIVITY PROMOTER” (SENTAN Pharma inc., priority 2017, published 2020).

Key:
Hepatoma cell line Huh-7 = assay: Anticancer effect of 2DG in nude mice subcutaneously transplanted with hepatoma cell line (Example 1); format: in vivo, nude mice (BALBc-nu/nu); details: for tumor volume over time (FIG. 2): combination with sorafenib 5 mg/kg/day orally
Method: The Hepatoma cell line Huh-7 (obtained from Cell Resource Center for Biomedical Research, Cell Bank, Institute of Development, Aging and Cancer, National University Corporation Tohoku University) to be transplanted to the mice was cultured at 37° C. using a 5% CO2 incubator. Dulbecco's modified Eagle's medium (DMEM) containing 10% fetal bovine serum was used as the medium for culturing Huh-7 cells. Six-week-old nude mice (male, BALBc-nu/nu mice) were subcutaneously transplanted with 1×10^7 Huh-7 cells. In order to confirm the survival and growth of the transplanted cells, the measurement of tumor size was carried out using a pair of vernier calipers. […] (a) Control group: 200 μL of PBS was administered intraperitoneally every day. […] At the time points of 7 days, 14 days and 21 days after the start of administration, the average amount of meals taken per day was calculated from the amount of meals taken in the previous week. […] Further, 21 days after the start of administration, the tumors were observed, blood was collected from the mice in accordance with a conventional method, and the livers were removed from the mice. The serological profiles of the collected blood samples were measured using SPOTCHEM (trademark) EZ SP-4430 system (manufactured by Arkray, Inc.). In addition, the weight of the removed livers was measured.

[1] = Side effects in Example 1: body weight, meals, blood glucose, serological profiles, liver weight; format: in vivo, nude mice (BALBc-nu/nu); details: for Fasting blood glucose / Liver weight / Total cholesterol / ALT / Neutral fat: day 21
Method: Six-week-old nude mice (male, BALBc-nu/nu mice) were subcutaneously transplanted with 1×10^7 Huh-7 cells. In order to confirm the survival and growth of the transplanted cells, the measurement of tumor size was carried out using a pair of vernier calipers. At the time point when the tumors in the mice had reached a volume of from 100 to 150 mm^3, the mice were divided into the following six groups.
In each of the groups, the tumor volume and the body weight of the mice were measured every 3 days from the start of administration. At the time points of 7 days, 14 days and 21 days after the start of administration, the average amount of meals taken per day was calculated from the amount of meals taken in the previous week. […] Further, 21 days after the start of administration, the tumors were observed, blood was collected from the mice in accordance with a conventional method, and the livers were removed from the mice. The serological profiles of the collected blood samples were measured using SPOTCHEM (trademark) EZ SP-4430 system (manufactured by Arkray, Inc.). In addition, the weight of the removed livers was measured.

[2] = Side effects in Example 3: body weight, meals, blood glucose, serological profiles, liver weight; format: in vivo, nude mice; details: day 21
Method: Nude mice subcutaneously transplanted with Huh-7 cells, prepared in the same manner as in Example 1, were divided in the following six groups.
In each of the groups, the tumor volume and the body weight of the mice were measured in the same manner as in Example 1, and the average amount of meals taken per day was calculated.

CD3 positive T cells = assay: Immunostaining of liver tumor tissue with CD3 antibody (Example 10); format: in vivo, STAM mice (C57BL6/N); details: 2DG 100 mg/kg/day i.p. every day; high dose 2DG-PLGA 200 μL of 100 mg/mL once a week
Method: Further, the immunostaining of the liver tumor tissue was carried out using a rabbit monoclonal CD3 antibody (manufactured by GeneTex, Inc.).

[3] = cited from earlier work
[4] = high dose 2DG 1,000 mg/kg/day i.p. (alone or with sorafenib 5 mg/kg/day orally)
[5] = low dose 2DG 100 mg/kg/day i.p. (alone or with sorafenib 5 mg/kg/day orally)
[6] = high dose 2DG 1,000 mg/kg/day i.p., day 14 after start
[7] = 2DG 100 mg/kg/day into jugular vein once a week
[8] = 2DG 100 mg/kg/day intraperitoneally every day

With `O=CC[C@@H](O)[C@H](O)[C@H](O)CO` [2DG, 2-Deoxy-D-glucose] the “size of the tumors (appearance, FIG. 1)” value (Hepatoma cell line Huh-7; 21 days after start, 2DG i.p. every day, sorafenib 5 mg/kg/day orally) was “decreased the size of the tumors”, the “tumor volume over time (FIG. 2)” value (Hepatoma cell line Huh-7; high dose 2DG 1,000 mg/kg/day i.p. every day) was “significant decrease in the tumor volume in a dose-dependent manner” and the “tumor volume over time (FIG. 2)” value (Hepatoma cell line Huh-7; low dose 2DG 100 mg/kg/day i.p. every day) was “significant decrease in the tumor volume in a dose-dependent manner”. It also gave a Fasting blood glucose [1, 4] of 77.2 ± 28.0 mg/dL, a Liver weight [1, 4] of 1.10 ± 0.1 g and a Total cholesterol [1, 4] of 110.8 ± 23.6 mg/dL. For the same compound, the ALT [1, 5] was 34.8 ± 16.2 mg/dL, the Fasting blood glucose [1, 5] was 79.0 ± 10.9 mg/dL and the Liver weight [1, 5] was 1.21 ± 0.1 g. The Neutral fat [1, 5] was 103.2 ± 24.7 mg/dL, the Total cholesterol [1, 5] was 122.6 ± 19.8 mg/dL and the “blood glucose level after administration (FIG. 5)” value [1, 6] was “marked increase in the blood glucose level”. The consciousness after administration [1, 6] was “disturbance of consciousness was observed”, the ALT [2, 7] was 49 ± 20.9 U/L and the Fasting blood glucose [2, 7] was 73.8 ± 14.0 mg/dL. It also gave a Liver weight [2, 7] of 1.10 ± 0.19 g, a Neutral fat [2, 7] of 67.6 ± 28.5 mg/dL and a Total cholesterol [2, 7] of 115.4 ± 10.1 mg/dL. It also gave an ALT [2, 8] of 38.6 ± 23.5 U/L, a Fasting blood glucose [2, 8] of 83.2 ± 38.2 mg/dL and a Liver weight [2, 8] of 1.35 ± 0.19 g. The Total cholesterol [2, 8] was 113.8 ± 25.3 mg/dL, the “infiltration of T cells into the interior of tumors (FIG. 29)” value (CD3 positive T cells) was “increased infiltration of T cells” and the side-effects ([3]; dose of from 63 to 88 mg/kg) was “severe side-effects such as gastrointestinal bleeding, long QT syndrome and hyperglycemia were observed”. For the same compound, the tolerated dose ([3]; phase 1 clinical trial, oral administration, combined with docetaxel) was ≤ 63 mg/kg.
`CNC(=O)c1cc(Oc2ccc(NC(=O)Nc3ccc(Cl)c(C(F)(F)F)c3)cc2)ccn1` [Sorafenib, sorafenib] showed an ALT ([1]; sorafenib 5 mg/kg/day orally) of 35.0 ± 10.3 mg/dL, a Fasting blood glucose ([1]; sorafenib 5 mg/kg/day orally) of 84.8 ± 11.8 mg/dL and a Neutral fat ([1]; sorafenib 5 mg/kg/day orally) of 95.2 ± 35.7 mg/dL. It also gave a Total cholesterol ([1]; sorafenib 5 mg/kg/day orally) of 120.4 ± 17.8 mg/dL.
